Data on three compounds can be found in US20070275911A1, “Targeted Drug-Formaldehyde Conjugates and Methods of Making and Using the Same” (priority 2003, published 2007).

A word on the IC50: it is the concentration that inhibits the measured activity by half.

“And” between values parts separate entries of the source, which are not always exact repeats. Equal entries are not always repeated. Where two headings read alike, the source gives them in different places.

Series [1] in a line: Hydrolysis and stability of DOX-TEG-TAM. The series is classed as physicochemical. How it is done:
Results: Hydrolysis and stability. A standard solution of DOX-TEG-TAM (11c) in dimethylsulfoxide (DMSO) containing 1% v/v acetic acid (AcOH) was diluted 1:100 in two different buffers: lysis buffer (pH 7.4, 10 mM Tris, 1.5 mM EDTA, 10 mM Na2MoO4) used for binding experiments or TE buffer (pH 7.6, 10 MM Tris, 1 mM EDTA). Samples incubated at 37° C. and 4° C. were monitored by HPLC to detect the loss of intact targeted drug and the formation of doxorubicin. The hydrolysis data was fit using first-order reaction kinetics to provide first-order rate constants; the hydrolysis half-life was then calculated using t1/2=ln2/k.
The DOX-TEG-TAM was diluted 1:100 in either pH 7.6 TE buffer (10 mM tris, 1 mM EDTA buffer) or pH 7.4 lysis buffer (10% v/v glycerol, 10 mM Tris, 1.5 mM EDTA, 10 mM Na2MoO4). A sample of each buffer was kept at 37° C. and 4° C. and monitored by HPLC using Method #2 (described above) to track the loss of DOX-TEG-TAM and the subsequent formation of doxorubicin. The area-under-the-curve (AUC) was used to calculate the percentage of intact material versus time. The hydrolysis data were fit to first-order kinetics using Regression (Blackwell Scientific Publishing, London) software. The reaction rate constants were 0.012±0.0007 min^−1 (pH 7.6) and 0.0092±0.0003 min^−1 (pH 7.4) at 37° C.; 0.0058±0.0005 h^−1 (pH 7.6) and 0.0038±0.0003 h^−1 ([…]) at 4° C. The half-life for hydrolysis was then calculated from the rate constants using t1/2=ln2/k.

For a further series, the target named is T1, estrogen receptor (Homo sapiens, UniProt P03372).
T1 construct: endogenous in cells; host or cells: MCF-7 cells (ATCC); 225,000 g supernatant of sonicated lysate
The series can be described thus: Estrogen receptor competitive binding assay (3H-E2, MCF-7 cell lysate).

For another series, the system named is MDA-MB-231 cells. The series can be described thus: Uptake and release by flow cytometry. The series is classed as cell-based, human. An excerpt: Additionally, uptake and release data were obtained for DOX, DOXSF, and DOX-TEG-TAM in estrogen receptor-negative MDA-MB-435 and MDA-MB-231 cells. In both cell lines DOX-TEG-TAM was also taken up to a much greater extent than DOX and DOXSF. In MDA-MB-435 cells DOX-TEG-TAM was taken up 3-fold and 5-fold more than DOXSF and DOX, respectively. In MDA-MB-23 1 cells DOX-TEG-TAM was taken up 2-fold and 6-fold more than DOXSF and DOX, respectively.
Uptake and release of DOX, DOXSF, and DOX-TEG-TAM: The uptake and release of DOX-TEG-TAM in breast cancer cells relative to DOX and untargeted DOXSF was performed as described with modifications. Breast cancer cells in log phase growth were dissociated with trypsin-EDTA, counted, resuspended in media at 1.5×10^5 cells/mL, and plated into six well plates (450,000 cells/well) and allowed to adhere overnight. The cells were treated with 0.5 μM DOX, DOXSF, or DOX-TEG-TAM for various amounts of time (20 min, 40 min, and 60 min). Drug treatment was accomplished by addition of 30 μL of 100× drug solution (50 μM) to 3 mL of media which was mixed and immediately added to the cells. For each time point, the media was removed, cells were trypsinized, and trypsinization was quenched with 3 mL phenol red-free RPMI 1640 media (no serum) at 4° C. Cells were pelleted by centrifugation at 300 g for 5 min at 10° C. The supernatant was decanted and the cells were re-suspended in 1 mL serum- and phenol red-free RPMI 1640 media and placed on ice.
For drug retention samples, the cells were treated for 1 h with 0.5 μM DOX, DOXSF, or DOX-TEG-TAM. Following drug treatment, the media was removed and replaced with 3 mL fresh, 37° C., full (containing serum and phenol red indicator) cell media and the cells were incubated for various times (0.5 h, 1 h, 3 h, and 6 h). Following the allotted release times, the cells were prepared as described above. Drug treatment was performed such that all cell samples would be prepared within 2 h.
The extent of drug uptake and retention was measured by flow cytometry. Cells were analyzed with excitation at 488 nm (15 mW Ar ion laser), with emission monitored between 570 and 600 nm. Instrument settings were optimized for each cell line and held constant for all experiments; 10,000 cells were analyzed for anthracycline fluorescence. The data are presented as the mean fluorescence for each condition with the background, drug-free cell fluorescence subtracted.
A general note: Flow cytometry measures light scatter and fluorescence of single cells or particles in a stream.

Another series relates to MCF-7/ADR. The series is described as follows: Cytotoxicity, crystal violet colony assay (Example 1). The settings on record: for IC50: 4 h treatment, read-out: IC50 cancer cell growth inhibition. Type of series: cell-based, human. How it is done:
(§1) This cell suspension was dispensed in 200 μL aliquots into 96-well tissue culture plates. Plates were then incubated for 24 h at 37° C. in a humidified atmosphere of 5% CO2 and 95% air. The medium was replaced with 180 μL of growth medium prior to addition of the prodrug. Doxsaliform was dissolved in DMSO containing 1% glacial acetic acid at concentrations ranging from 1 mM to 10 mM and sterile-filtered through a 0.45 μm nylon centrifuge filter. The concentration was then corrected by measuring the solution absorbance at 480 nm (ε=11 500 L/(mol·cm). Serial dilutions (1:10) were made in sterile DMSO to yield seven solutions of decreasing drug concentration at 100× the respective working concentrations. The resulting solutions were individually diluted 1:10 in RPMI 1640; 20 μL of the resulting 10× solution was immediately added to the appropriate lane of cells. Additionally, two lanes were treated with 20 μL growth medium containing 10% sterile DMSO and one lane was treated with 200 μL of 1.5 M Tris buffer. The cells were incubated at 37° C. for 4 h, at which time the drug solutions were replaced with 200 μL of fresh growth medium. […] The extent of colony formation was determined using a crystal violet staining assay.
(§2) The biological activities of several of the N-Mannich base derivatives were determined by their in vitro cytotoxicity against MCF-7 and MCF-7/ADR human breast cancer derived cell lines. While MCF-7 cells are sensitive to doxorubicin, the MCF-7/ADR cell line is an MCF-7 derivative which is characterized by its marked resistance to doxorubicin.

The next series has as its system MCF-7. The description is as above. Type of series: cell-based, human. As to conditions: for IC50: MCF-7, 4 h treatment, read-out: IC50 cancer cell growth inhibition. How it is done: as §1, §2
For series [2] the following is noted: cell line not stated; cited from earlier work.

T1 sequence (P03372 whole entry): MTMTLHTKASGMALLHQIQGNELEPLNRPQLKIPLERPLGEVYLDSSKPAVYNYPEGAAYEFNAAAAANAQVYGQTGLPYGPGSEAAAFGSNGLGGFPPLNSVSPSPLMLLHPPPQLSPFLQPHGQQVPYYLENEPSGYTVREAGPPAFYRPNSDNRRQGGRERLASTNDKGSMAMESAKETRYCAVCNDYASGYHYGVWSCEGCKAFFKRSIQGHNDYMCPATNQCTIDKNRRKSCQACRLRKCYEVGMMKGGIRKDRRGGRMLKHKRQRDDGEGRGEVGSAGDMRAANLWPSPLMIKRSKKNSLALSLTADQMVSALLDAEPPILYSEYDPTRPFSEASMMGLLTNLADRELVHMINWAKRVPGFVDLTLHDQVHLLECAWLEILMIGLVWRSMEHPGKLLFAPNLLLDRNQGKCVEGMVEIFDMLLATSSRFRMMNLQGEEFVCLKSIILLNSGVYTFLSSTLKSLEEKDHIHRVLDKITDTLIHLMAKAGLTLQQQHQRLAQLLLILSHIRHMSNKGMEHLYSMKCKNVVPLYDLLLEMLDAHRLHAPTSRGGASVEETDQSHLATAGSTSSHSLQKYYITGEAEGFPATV

On to `CC/C(=C(/c1ccc(O)cc1)c1ccc(OCCN(C)CCOCCOCCO/N=C/c2ccc(O)c(C(=O)NCN[C@H]3C[C@H](O[C@H]4C[C@](O)(C(=O)CO)Cc5c(O)c6c(c(O)c54)C(=O)c4c(OC)cccc4C6=O)O[C@@H](C)[C@H]3O)c2)cc1)c1ccccc1` [11c, E/Z-N-(2-Hydroxy-5-{[2-(2-{2-[(2-{4-[1-(4-hydroxy-phenyl)-2-phenyl-but-1-enyl]-phenoxy}-ethyl)-methyl-amino]-ethoxy}-ethoxy)-ethoxyimino]-methyl}-benzamide)-doxorubicin], for which the reaction rate constant was found to be 0.0092 ± 0.0003 min⁻¹ in series [1] (pH 7.4, 37° C.); 6.33e-05 ± 5e-06 min⁻¹ in series [1] (pH 7.5, 4° C.); 9.67e-05 ± 8.3e-06 min⁻¹ in series [1] (pH 7.6, 4° C.); 0.012 ± 0.0007 min⁻¹ in series [1] (pH 7.6, 37° C.). In addition, the “estrogen receptor binding affinity retained relative to targeting group alone” value on estrogen receptor was determined as 2.5%. In addition, at estrogen receptor (relative to E/Z-4-OHT = 100), the “RBA^OHT” value amounted to 2.5. The “fold uptake more than DOX” value with MDA-MB-231 cells (MDA-MB-231) is listed as 6 fold. Further, the “fold uptake more than DOXSF” value in the series with MDA-MB-231 cells (MDA-MB-231) was 2 fold. For the same compound, in the series with MDA-MB-231 cells (MDA-MB-231, 1 h, 500 nM), the “uptake relative to MDA-MB-435 cells” value was “about 25%”. Besides, the “fluorophore retention vs DOXSF or DOX” value in the series with MDA-MB-231 cells (MDA-MB-231, after 1 h treatment with 500 nM) is reported as “retained to a greater extent”.

For the compound `COc1cccc2c1C(=O)c1c(O)c3c(c(O)c1C2=O)C[C@@](O)(C(=O)CO)C[C@@H]3O[C@H]1C[C@H](N)[C@H](O)[C@H](C)O1` [doxorubicin, reference compound], the 50% inhibitory concentration (IC50) is 8 µM in the series on MCF-7/ADR (Homo sapiens, NCI/ADR-RES) and 0.3 µM in the series on MCF-7 (Homo sapiens, MCF7).

As for `COc1cccc2c1C(=O)c1c(O)c3c(c(O)c1C2=O)C[C@@](O)(C(=O)CO)C[C@@H]3O[C@H]1C[C@H](NCNC(=O)c2ccccc2O)[C@H](O)[C@H](C)O1` [doxsaliform, N-(2-Hydroxybenzamido-methyl)-doxorubicin], the concentration for half-maximal inhibition (IC50) was 0.8 µM with MCF-7/ADR; 0.08 µM in the series on MCF-7; 0.06 µM and 0.05 µM in series [2]. The DOX/doxsaliform in the series with MCF-7/ADR (fold increase in cytotoxicity, 4 h drug treatment) was found to be 10; in the series on MCF-7 (MCF-7, fold increase in cytotoxicity, 4 h drug treatment), 4.
